# Reference: paper PMC5903829 (Experimental & Molecular Medicine, 2018)
# Test system: Caco-2 cells
# Experiment: Trans-epithelial electrical resistance in Caco-2 monolayers
# Format: cell-based, human
# Conditions: compound C 30 min pre-treatment, then LPS or LPS+AmEV
structure (smiles),measurement,value
c1cc(-c2cnn3cc(-c4ccc(OCCN5CCCCC5)cc4)cnc23)ccn1 [compound C],AmEVs' ability to improve LPS-induced loss of barrier integrity (TEER) in the presence of AMPK inhibitor,abolished
